In patent US11479533B2, “Inhibitors of Rho associated coiled-coil containing protein kinase” (KADMON CORPORATION, LLC, priority 2017, dated 2022):
Where two headings read alike, the source gives them in different places.

Assays:
[1] = biological target: recombinant ROCK1 (amino acids 1-535) (Homo sapiens (Human), UniProt Q13464); assay: Z'-lyte kinase assay, ROCK1; type: biochemical
Description: Determination of compounds ROCK inhibitory activity in vitro (Z'lyte assay): recombinant ROCK1 (amino acids 1-535) and ROCK2 (amino acids 1-552) proteins were purchased from ThermoFisher Scientific. Compounds activities were measured by Z'-lyte kinase kit (ThermoFisher Scientific) and IC50s were calculated.
Compounds activities were measured by Z'-lyte kinase kit (ThermoFisher Scientific). […] IC50s were calculated using the GraphPad Prism software with kinase activities data that were collected from 9 points serial dilution of compounds treatment. The ROCK inhibition in A7R5 cells and NIH3T3 (Acta2-Luc) cells was performed as described above.
The percent inhibition rate was calculated by normalizing the kinase activity value obtained with compound treatment against DMSO control value and then applied to the equation, […]. IC50's were calculated using the nonlinear regression curve fit function of the GraphPad Prism software with kinase activities data measured with 9 points 2-fold serial dilution of compounds treatment.

[2] = test system: ppMlc (T18/S19) and pMypt (T853) in Svec 4-10 mouse endothelial cells; assay: Western blot of Svec 4-10 cell lysates; type: cell-based; settings: 110 nM, 120 min
Description: FIG. 1d. Western blot of SVEC4-10 cell lysates to visualize ppMlc (T18/S19) & pMYPT (T853) levels following treatment with the compound of Example 2 for 120 min. SVEC4-10 cells were treated with the compound and phosphorylated proteins were visualized by western blotting.
Compounds ROCK activities were tested in additional cell types. Svec 4-10 mouse endothelial cells were treated with the compound of Example 2 for 120 min and ppMlc (T18/S19) and pMypt (T853) levels were visualized by western blotting.

[3] = test system: human oligodendrocyte/neuron progenitor cells; assay: Neurite outgrowth and differentiation of human oligodendrocyte/neuron progenitors; type: cell-based
Description: Thawing and proliferation of human oligodendrocyte/neuron progenitor cells (OPCs). Cryopreserved human oligodendrocyte/neuron progenitors (Millipore Cat. No. CS204496) were recovered and cultured on maltrigel (BD Cat. No. 356324) coated T-25 flask in expansion media containing OPC/neuron basal medium, N21 medium supplement, recombinant human bFGF, PDGF-AA and NT-3. When cells reached 80% confluent, 3 ml of Accutase was applied (Millipore SCR005) to passage cells at 1:4 ratio. Sub-cultured cells were maintained in expansion media for proliferation.
Spontaneous differentiation of human oligodendrocyte/neuron progenitors in 24-well and 96-well plates. Coat plate with 10 μg/ml poly-L-ornithine (Sigma Cat. No. P4957) overnight at room temperature. Remove the poly-L-ornithine solution and rinse the plate with 1×PBS, add 10 μg/ml laminin (Millipore Cat. No. CC095) and incubate at 37° C. for at least 2 hours. Seed cells on the coated plates in expansion media and allowed to attach overnight. The next day expansion media was removed and replaced with freshly prepared spontaneous differentiation media only containing OPC/neuron basal media and N21 media supplement. For 14 day culture, differentiation media was replaced every 3-4 days. Cells were imaged and neurite length was analyzed by IncuCyte S3 Live Cell Analysis System every 4 hours. After 14 days of differentiation, cells were fixed by 4% paraformaldehyde and stained with DAPI and Neuron-specific ß-III tubulin antibody (R&D systems, NL1195R).

[4] = test system: human oligodendrocyte/neuron progenitor cells; assay: Chondroitin Sulfate Proteoglycan (CSPG) assay on human oligodendrocyte/neuron progenitors; type: cell-based; settings: 1 μM and 3 μM, 72 hour
Description: Chondroitin Sulfate Proteoglycan (CSPG) assay on human oligodendrocyte/neuron progenitors in 96-well plate. […] Cells were seeded on the coated plates at a density of 6,000 cells per well in expansion media. The following day the expansion media was replaced with fresh spontaneous differentiation media containing testing compounds. Cells were imaged and neurite length was analyzed by IncuCyte S3 Live Cell Analysis System every 4 hours.

[5] = test system: human oligodendrocyte/neuron progenitor cells; assay: Aβ 1-42 induced cell death assay on human oligodendrocyte/neuron progenitors; type: cell-based; settings: 3 μM, 10.5 μM Aβ1-42, 24 hour
Description: Aβ 1-42 induced cell death assay on human oligodendrocyte/neuron progenitors in 96-well plate. Cells were seeded on poly-L-ornithine and laminin coated plates at a density of 8,000 cells per well and maintained in expansion media until Day 3, then media was replaced with fresh spontaneous differentiation media containing testing compounds and IncuCyte Annexin V Red Reagent (1:200 dilution) (Essen BioScience Cat. No. 4641). After the pre-incubation period of 30 minutes at 37° C., 10.5 μM Aβ 1-42 (Bachem Product No. H-8146) was added directly in the pretreatment solution. Neurite length and total Annexin V positive area were analyzed by IncuCyte S3 Live Cell Analysis System every 2 hours.
In addition to promoting neuroregeneration, ROCK inhibitors have been reported to exert neuroprotective effects and prolong neuronal survival. Here we test the neuroprotective effect of ROCK inhibitors against Aβ1-42. Human oligodendrocyte/neuron progenitor cells were pre-incubated with ROCK inhibitors for 30 minutes before exposing to 10.5 μM Aβ1-42. IncuCyte Annexin V Red Reagent was added to culture media to label cell apoptosis. Pictures were taken by IncuCyte S3 and total Annexin V positive area was analyzed by IncuCyte S3 base software. Neurite length was quantified by IncuCyte NeuroTrack Software Module, see FIGS. 3b and 3c.

[6] = test system: ppMlc (T18/S19) levels in A7R5 cells; assay: A7R5 in-cell ELISA assay (ppMlc); type: cell-based, rat; settings: Rattus norvegicus, A7R5, A7R5 cells
Method in brief: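 Rat aortic smooth muscle A7R5 cells in DMEM with 10% FBS, seeded 24 h, then treated 90 min with 9-point 2-fold compound dilutions. ppMlc (T18/S19) measured by colorimetric in-cell ELISA; cellular IC50 from nonlinear regression curve fit.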

Sequence of recombinant ROCK1 (amino acids 1-535) (Q13464 1-535): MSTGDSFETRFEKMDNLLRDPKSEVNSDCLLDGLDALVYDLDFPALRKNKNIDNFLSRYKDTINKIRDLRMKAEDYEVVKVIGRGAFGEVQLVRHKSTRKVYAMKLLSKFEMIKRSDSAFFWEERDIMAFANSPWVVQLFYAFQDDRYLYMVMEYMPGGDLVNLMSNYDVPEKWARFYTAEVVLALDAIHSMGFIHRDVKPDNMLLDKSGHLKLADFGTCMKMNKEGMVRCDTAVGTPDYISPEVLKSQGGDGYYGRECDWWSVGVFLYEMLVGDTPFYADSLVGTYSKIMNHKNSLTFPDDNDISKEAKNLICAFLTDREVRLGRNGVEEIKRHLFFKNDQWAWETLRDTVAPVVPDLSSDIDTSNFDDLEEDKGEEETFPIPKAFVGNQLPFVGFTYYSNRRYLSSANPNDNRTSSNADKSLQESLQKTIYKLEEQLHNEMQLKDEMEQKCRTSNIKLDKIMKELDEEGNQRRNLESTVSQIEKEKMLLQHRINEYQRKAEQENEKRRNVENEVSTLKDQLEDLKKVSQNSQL

CNC(C(=O)Nc1ccc(-c2cn[nH]c2)cc1)c1cccc(OC)c1 (centres unmarked) [Example 2, N-(4-(1H-pyrazol-4-yl)phenyl)-2-(3-methoxyphenyl)-2-(methylamino)acetamide]
IC50 [1]: 0.017 µM
phosphorylation of ROCK targets MLC and MYPT1 [2]: efficiently blocked phosphorylation
neuronal differentiation and maturation ([3]; 14 days culture, Beta III tubulin): facility neuronal differentiation and maturation
neurite length ([3]; various concentrations, 3 days culture): significantly increase neurite length
CSPG mediated neurite outgrowth arrest [4]: significantly counteract
Aβ1-42 induced cell death (Annexin V area) [5]: significantly protect
IC50 ([6]; Table 2, read-out: pMLC IC50 (nM) A7R5): 120 nM
IC50 ([6]; ppMlc (T18/S19), in-cell ELISA, read-out: ppMlc IC50): 86 nM
